Test results: patent US20080109040A1, “METHOD OF TREATING ARRHYTHMIAS” (priority 2002, published 2008)

Columns and labels:
Assay type in all cases: cell-based
[1] = system: transient outward current (Ito); assay: Transient outward current voltage clamp in isolated canine left ventricular myocytes; conditions: for Effect on Ito: any of the test voltages
[2] = target: T1, sodium-calcium exchange current (INa-Ca) (Canis lupus familiaris, UniProt P23685); assay: Sodium-calcium exchange current voltage clamp in isolated canine left ventricular myocytes; conditions: read-out: IC50 for inhibition of INa-Ca
T1 construct: Single myocytes were obtained by enzymatic dissociation from a wedge-shaped section of the ventricular free wall; endogenous in cells; host or cells: isolated canine left ventricular myocytes

[3] = system: inward rectifier potassium current (IK1); assay: Voltage clamp of inward rectifier IK1 in canine ventricular myocytes; conditions: ranolazine up to 100 μM
Procedure: Myocytes were isolated by enzymatic dissociation from a wedge-shaped section of the left ventricular free wall supplied by the left circumflex coronary artery. Cells from the epicardial and midmyocardial regions of the left ventricle were used in this study.
Inward rectifier potassium current (IK), slow delayed rectifier potassium current (IKs), and rapid delayed rectifier potassium current (IKr) were recorded at 37° C. using conventional whole cell voltage clamp configuration.
IK1 was measured using an external solution containing 3 μM ouabain and 5 μM nifedipine to block the sodium-potassium pump and L-type calcium current (ICa,L), respectively. […] 5 μM nifedipine was present in the external solution when IKr was being recorded. […]
IKr was measured as the time-dependent tail current elicited at a potential of −40 mV following a short 250 ms depolarizing pulse to 30 mV. Data are presented as mean ±S.E.M. IK1 was recorded during 900 msec voltage steps applied from a holding potential of −40 mV to test potentials ranging from −100 mV to 0 mV, and was characterized as the 5 msec average of the steady state current at the end of the test pulse.
The inward rectifier, IK1, was recorded using perforated-patch voltage clamp techniques. […] Panel B plots composite data illustrating the current-voltage relations constructed from the average current measured at the end of each test pulse

late INa = late INa (Canis lupus familiaris, UniProt Q865W3); assay: Late INa, perforated patch voltage clamp in isolated canine left ventricular myocytes; conditions: 500 ms pulses to −30 mV at 1 Hz, read-out: Half-inhibition of late INa
late INa, sequence (Q865W3 1-2013): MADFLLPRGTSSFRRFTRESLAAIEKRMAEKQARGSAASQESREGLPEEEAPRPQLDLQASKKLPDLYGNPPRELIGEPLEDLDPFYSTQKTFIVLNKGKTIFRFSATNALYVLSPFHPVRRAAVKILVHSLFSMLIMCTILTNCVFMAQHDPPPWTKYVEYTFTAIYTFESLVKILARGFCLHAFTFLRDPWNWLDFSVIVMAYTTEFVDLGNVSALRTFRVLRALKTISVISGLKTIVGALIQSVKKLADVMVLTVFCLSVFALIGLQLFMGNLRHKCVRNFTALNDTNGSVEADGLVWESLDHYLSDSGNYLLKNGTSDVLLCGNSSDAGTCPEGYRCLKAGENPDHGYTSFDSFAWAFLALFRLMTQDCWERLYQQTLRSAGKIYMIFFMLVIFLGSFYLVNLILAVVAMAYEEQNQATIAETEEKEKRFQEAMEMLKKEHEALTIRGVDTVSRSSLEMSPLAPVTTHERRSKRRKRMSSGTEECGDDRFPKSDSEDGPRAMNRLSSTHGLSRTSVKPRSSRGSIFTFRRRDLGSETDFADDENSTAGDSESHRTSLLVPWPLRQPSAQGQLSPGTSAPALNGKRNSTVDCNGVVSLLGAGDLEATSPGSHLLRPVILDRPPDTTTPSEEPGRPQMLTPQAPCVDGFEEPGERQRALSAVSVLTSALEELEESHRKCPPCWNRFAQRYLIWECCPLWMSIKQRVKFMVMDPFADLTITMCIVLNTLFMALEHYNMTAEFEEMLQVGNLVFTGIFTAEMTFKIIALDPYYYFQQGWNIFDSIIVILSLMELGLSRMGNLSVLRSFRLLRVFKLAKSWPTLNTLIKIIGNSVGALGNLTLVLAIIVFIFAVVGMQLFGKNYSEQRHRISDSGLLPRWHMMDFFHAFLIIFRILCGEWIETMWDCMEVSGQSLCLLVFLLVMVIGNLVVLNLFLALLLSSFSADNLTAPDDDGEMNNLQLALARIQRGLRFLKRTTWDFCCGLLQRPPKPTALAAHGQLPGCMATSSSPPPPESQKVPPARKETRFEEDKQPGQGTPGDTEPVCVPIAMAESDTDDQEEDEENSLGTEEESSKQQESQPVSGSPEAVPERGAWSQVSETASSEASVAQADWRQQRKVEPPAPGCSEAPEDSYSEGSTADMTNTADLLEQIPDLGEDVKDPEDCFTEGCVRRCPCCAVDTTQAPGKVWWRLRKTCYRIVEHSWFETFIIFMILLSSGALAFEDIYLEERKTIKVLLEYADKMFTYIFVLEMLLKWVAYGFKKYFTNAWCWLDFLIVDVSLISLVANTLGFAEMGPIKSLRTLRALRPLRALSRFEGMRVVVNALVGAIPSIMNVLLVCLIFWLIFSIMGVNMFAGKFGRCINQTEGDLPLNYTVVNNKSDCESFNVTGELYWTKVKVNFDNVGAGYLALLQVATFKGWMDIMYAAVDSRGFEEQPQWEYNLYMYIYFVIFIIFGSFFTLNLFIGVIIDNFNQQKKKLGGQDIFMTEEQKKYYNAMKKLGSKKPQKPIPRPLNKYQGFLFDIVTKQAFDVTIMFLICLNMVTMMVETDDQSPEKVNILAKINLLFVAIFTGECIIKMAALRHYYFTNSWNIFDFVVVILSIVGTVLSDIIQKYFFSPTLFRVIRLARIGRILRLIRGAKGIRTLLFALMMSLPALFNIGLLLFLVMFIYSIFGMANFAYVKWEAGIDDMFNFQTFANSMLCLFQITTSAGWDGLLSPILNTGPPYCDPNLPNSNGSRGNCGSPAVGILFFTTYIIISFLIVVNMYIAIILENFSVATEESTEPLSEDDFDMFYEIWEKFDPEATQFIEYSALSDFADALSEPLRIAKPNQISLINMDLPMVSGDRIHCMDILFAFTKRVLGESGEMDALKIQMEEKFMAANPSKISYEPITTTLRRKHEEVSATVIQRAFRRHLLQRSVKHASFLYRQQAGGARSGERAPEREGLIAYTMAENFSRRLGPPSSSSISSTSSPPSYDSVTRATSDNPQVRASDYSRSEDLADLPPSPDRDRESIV

With COc1ccccc1OCC(O)CN1CCN(CC(=O)Nc2c(C)cccc2C)CC1 (racemic) [ranolazine, N-(2,6-dimethylphenyl)-4-[2-hydroxy-3-(2-methoxyphenoxy)propyl]-1-piperazineacetamide] the “Effect on Ito” value ([1]; ranolazine 10 μM) was “no effect”, the “Effect on Ito” value ([1]; ranolazine 20 μM) was “no effect” and the “Reduction of peak Ito” value ([1]; ranolazine 50 μM, 4 min) was “less than 10”. The “Reduction of Ito” value ([1]; ranolazine 50 μM, test potential 10 mV) was 10±2%, the “Reduction of Ito” value ([1]; ranolazine 100 μM, test potential 0 mV) was 16±3% and the “Reduction of Ito” value ([1]; ranolazine 100 μM, test potential 10 mV) was 17±4%. For the same molecule, the IC50 [2] was 91 µM, the “Effect on IK1” value [3] was “no change” and the “Effect on IK1” value ([3]; listed as Ranolazine) was “did not alter”. The IC50 (late INa) was 21 µM.
